22 compounds from patent publication US9884868B2, “TGF-beta inhibitors” (Rigel Pharmaceuticals, Inc., priority 2015, dated 2018) can be followed below.

Where two headings read alike, the source gives them in different places.

The target of one experiment is HIS-TGF-βR2 WT (Homo sapiens (Human), UniProt P37173). Briefly: HTRF probe displacement assay with HIS-TGF-βR2 WT. (Time-resolved FRET reads energy transfer from a long-lived donor to a nearby acceptor.)
A further experiment has as its target HIS-TGF-βR1 T204D (Homo sapiens (Human), UniProt P36897, T204D). Briefly: HTRF probe displacement assay with HIS-TGF-βR1 T204D.
[1] abbreviates: read-out: TGFBr2 IC50, HTRF probe displacement, 1 nM HIS-TGF-βR2 WT, 1 hour at room temperature.
Setting [2] is: read-out: TGFbr1 IC50, HTRF probe displacement, 1 nM HIS-TGF-βR1 T204D, 1 hour at room temperature.

Sequence of HIS-TGF-βR1 T204D (P36897 34-503 T204D): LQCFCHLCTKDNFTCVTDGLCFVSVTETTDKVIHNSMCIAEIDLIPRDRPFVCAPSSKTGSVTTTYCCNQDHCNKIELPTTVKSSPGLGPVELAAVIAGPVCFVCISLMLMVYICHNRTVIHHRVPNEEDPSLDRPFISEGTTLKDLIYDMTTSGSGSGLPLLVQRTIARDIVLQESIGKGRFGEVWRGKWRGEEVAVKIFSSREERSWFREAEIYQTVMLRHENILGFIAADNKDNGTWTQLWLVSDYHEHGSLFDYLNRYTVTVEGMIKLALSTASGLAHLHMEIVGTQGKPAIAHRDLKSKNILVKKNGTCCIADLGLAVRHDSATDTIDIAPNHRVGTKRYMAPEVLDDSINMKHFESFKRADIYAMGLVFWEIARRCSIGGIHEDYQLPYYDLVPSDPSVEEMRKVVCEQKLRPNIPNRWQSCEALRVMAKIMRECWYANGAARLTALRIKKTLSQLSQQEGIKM
Sequence of HIS-TGF-βR2 WT (P37173 23-567): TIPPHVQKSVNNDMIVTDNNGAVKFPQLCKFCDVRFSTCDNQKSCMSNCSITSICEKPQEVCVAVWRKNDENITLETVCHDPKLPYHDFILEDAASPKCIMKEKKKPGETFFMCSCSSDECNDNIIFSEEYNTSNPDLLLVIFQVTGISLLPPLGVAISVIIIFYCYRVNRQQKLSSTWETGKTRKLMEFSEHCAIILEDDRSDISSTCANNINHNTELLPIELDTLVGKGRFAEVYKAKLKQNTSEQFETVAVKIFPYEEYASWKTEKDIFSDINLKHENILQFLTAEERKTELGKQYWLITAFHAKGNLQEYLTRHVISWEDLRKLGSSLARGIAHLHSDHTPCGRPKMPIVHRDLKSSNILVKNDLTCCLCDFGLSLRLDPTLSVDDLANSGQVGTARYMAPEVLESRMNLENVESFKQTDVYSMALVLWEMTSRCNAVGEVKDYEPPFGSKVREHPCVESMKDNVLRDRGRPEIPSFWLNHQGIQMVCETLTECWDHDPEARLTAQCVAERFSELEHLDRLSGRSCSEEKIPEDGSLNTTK

As to `N#Cc1cnc2ccc(-c3c(-c4ccc(F)cc4)ncn3[C@]34CC5CC(C[C@](O)(C5)C3)C4)nn12` (single isomer, unassigned) [269′], the IC50 (usually the concentration needed to halve the response being measured) on HIS-TGF-βR2 WT (setting [1]) was > 15 µM; at HIS-TGF-βR1 T204D (setting [2]) it was 1200 nM. Taken in the same sequence, the figures for `N#Cc1cnc2ccc(-c3c(-c4ccc(F)cc4)ncn3C3CCC(F)(F)CC3)nn12` [8′, 6-(1-(4,4-difluorocyclohexyl)-4-(4-fluorophenyl)-1H-imidazol-5-yl)imidazo[1,2-b]pyridazine-3-carbonitrile] were > 15 µM and 17.9 nM. Regarding `COCC(C1CC1)n1cnc(-c2ccc(F)cc2)c1-c1ccc2ncc(C#N)n2n1` (centres unmarked) [16′, 6-(1-(1-cyclopropyl-2-methoxyethyl)-4-(4-fluorophenyl)-1H-imidazol-5-yl)imidazo[1,2-b]pyridazine-3-carbonitrile], the IC50 on HIS-TGF-βR2 WT is > 15 µM; at HIS-TGF-βR1 T204D, 2.3 nM. Turning to `N#Cc1cnc2ccc(-c3c(-c4ccc(F)cc4)ncn3C3CCCCC3O)nn12` (centres unmarked) [17′, 6-(4-(4-fluorophenyl)-1-(2-hydroxycyclohexyl)-1H-imidazol-5-yl)imidazo[1,2-b]pyridazine-3-carbonitrile], the results for the half-inhibitory concentration (IC50) on HIS-TGF-βR2 WT (setting [1]) and at HIS-TGF-βR1 T204D (setting [2]) were > 15 µM and 3.5 nM, respectively. As for `N#Cc1cnc2ccc(-c3c(-c4ccc(F)cc4)ncn3[C@@H](CO)CC(F)(F)F)nn12` [28′, (R)-6-(4-(4-fluorophenyl)-1-(4,4,4-trifluoro-1-hydroxybutan-2-yl)-1H-imidazol-5-yl)imidazo[1,2-b]pyridazine-3-carbonitrile], the IC50 at HIS-TGF-βR2 WT (setting [1]) was > 15 µM; at HIS-TGF-βR1 T204D (setting [2]), 1 nM.

With `N#Cc1cnc2ccc(-c3c(-c4ccc(F)cc4)ncn3[C@H](CO)CC(F)(F)F)nn12` [29′, (S)-6-(4-(4-fluorophenyl)-1-(4,4,4-trifluoro-1-hydroxybutan-2-yl)-1H-imidazol-5-yl)imidazo[1,2-b]pyridazine-3-carbonitrile], the IC50 at HIS-TGF-βR2 WT (setting [1]) was > 15 µM; on HIS-TGF-βR1 T204D (setting [2]), 6.4 nM. Taken in the same sequence, the figures for `N#Cc1cnc2ccc(-c3c(-c4ccc(F)c(Cl)c4)ncn3C3CCOCC3)nn12` [48′, 6-(4-(3-chloro-4-fluorophenyl)-1-(tetrahydro-2H-pyran-4-yl)-1H-imidazol-5-yl)imidazo[1,2-b]pyridazine-3-carbonitrile] were > 15 µM and 3.1 nM. As to `N#Cc1cnc2ccc(-c3c(-c4ccc(F)c(Cl)c4)ncn3CC(O)C(F)(F)F)nn12` (centres unmarked) [55′, 6-(4-(3-chloro-4-fluorophenyl)-1-(3,3,3-trifluoro-2-hydroxypropyl)-1H-imidazol-5-yl)imidazo[1,2-b]pyridazine-3-carbonitrile], the IC50 on HIS-TGF-βR2 WT is > 15 µM; on HIS-TGF-βR1 T204D, 6.7 nM. For `N#Cc1cnc2ccc(-c3c(-c4ccc(F)cc4)ncn3CC(O)C(F)(F)F)cn12` (centres unmarked) [93′, 6-(4-(4-fluorophenyl)-1-(3,3,3-trifluoro-2-hydroxypropyl)-1H-imidazol-5-yl)imidazo[1,2-a]pyridine-3-carbonitrile] the same measures were > 15 µM and 576 nM. As for `N#Cc1cnc2ccc(-c3c(-c4ccc(F)c(Cl)c4)ncn3CCN3CCOCC3)cn12` [95′, 6-(4-(3-chloro-4-fluorophenyl)-1-(2-morpholinoethyl)-1H-imidazol-5-yl)imidazo[1,2-c]pyridine-3-carbonitrile], the figures for the IC50 at HIS-TGF-βR2 WT (setting [1]) and on HIS-TGF-βR1 T204D (setting [2]) were > 15 µM and 76.8 nM, respectively. For the compound `N#Cc1cnc2ccc(-c3c(-c4ccc(F)c(Cl)c4)ncn3C3CC(F)(F)C3)cn12` [99′, 6-(4-(3-chloro-4-fluorophenyl)-1-(3,3-difluorocyclobutyl)-1H-imidazol-5-yl)imidazo[1,2-a]pyridine-3-carbonitrile], the IC50 on HIS-TGF-βR2 WT (setting [1]) is > 15 µM; at HIS-TGF-βR1 T204D (setting [2]), 65.7 nM. For `NC(=O)c1cnc2ccc(-c3c(-c4ccc(F)cc4)ncn3C3CCC(F)(F)C3)nn12` (centres unmarked) [108′, 6-(1-(3,3-difluorocyclopentyl)-4-(4-fluorophenyl)-1H-imidazol-5-yl)imidazo[1,2-b]pyridazine-3-carboxamide] the same measures were > 15 µM and 2.1 nM.

`NC(=O)c1cnc2ccc(-c3c(-c4ccc(F)cc4)ncn3C3CCC(F)(F)CC3)nn12` [110′, 6-(1-(4,4-difluorocyclohexyl)-4-(4-fluorophenyl)-1H-imidazol-5-yl)imidazo[1,2-b]pyridazine-3-carboxamide]: the results for the IC50 at HIS-TGF-βR2 WT (setting [1]) and on HIS-TGF-βR1 T204D (setting [2]) were > 15 µM and 20.5 nM, respectively. In the case of `NC(=O)c1cnc2ccc(-c3c(-c4ccc(F)c(Cl)c4)ncn3CCC(F)(F)F)nn12` [115′, 6-(4-(3-chloro-4-fluorophenyl)-1-(3,3,3-trifluoropropyl)-1H-imidazol-5-yl)imidazo[1,2-b]pyridazine-3-carboxamide], the values for the IC50 at HIS-TGF-βR2 WT and on HIS-TGF-βR1 T204D were > 15 µM and 4.6 nM, respectively.

Turning to `NC(=O)c1cnc2ccc(-c3c(-c4ccc(F)c(Cl)c4)ncn3C3CC(F)(F)C3)nn12` [118′, 6-(4-(3-chloro-4-fluorophenyl)-1-(3,3-difluorocyclobutyl)-1H-imidazol-5-yl)imidazo[1,2-b]pyridazine-3-carboxamide], the IC50 at HIS-TGF-βR2 WT (setting [1]) is > 15 µM; at HIS-TGF-βR1 T204D (setting [2]), 1.4 nM.

As to `NC(=O)c1cnc2ccc(-c3c(-c4ccc(F)c(Cl)c4)ncn3CCN3CCOCC3)cn12` [120′, 6-(4-(3-chloro-4-fluorophenyl)-1-(2-morpholinoethyl)-1H-imidazol-5-yl)imidazo[1,2-a]pyridine-3-carboxamide], the IC50 is > 15 µM on HIS-TGF-βR2 WT (setting [1]) and 6.5 nM on HIS-TGF-βR1 T204D (setting [2]). For `NC(=O)c1cnc2ccc(-c3c(-c4ccc(F)c(Cl)c4)ncn3C3CC(F)(F)C3)cn12` [121′, 6-(4-(3-chloro-4-fluorophenyl)-1-(3,3-difluorocyclobutyl)-1H-imidazol-5-yl)imidazo[1,2-a]pyridine-3-carboxamide], the results for the IC50 on HIS-TGF-βR2 WT (setting [1]) and on HIS-TGF-βR1 T204D (setting [2]) were > 15 µM and 1.1 nM, respectively. Take `NC(=O)c1cnc2ccc(-c3c(-c4ccc(F)c(Cl)c4)ncn3C(CO)CO)cn12` [122′, 6-(4-(3-chloro-4-fluorophenyl)-1-(1,3-dihydroxypropan-2-yl)-1H-imidazol-5-yl)imidazo[1,2-a]pyridine-3-carboxamide]: the IC50 on HIS-TGF-βR2 WT (setting [1]) was > 15 µM; at HIS-TGF-βR1 T204D (setting [2]) it was 1.8 nM. For `COCC(C1CC1)n1cnc(-c2ccc(F)cc2)c1-c1ccc2ncc(C(N)=O)n2n1` (centres unmarked) [130′, 6-(1-(1-cyclopropyl-2-methoxyethyl)-4-(4-fluorophenyl)-1H-imidazol-5-yl)imidazo[1,2-b]pyridazine-3-carboxamide] the same measures were > 15 µM and 2.1 nM. On to `N#Cc1cnc2ccc(-c3c(-c4cccc(-c5ccccc5)c4)ncn3CC(F)F)nn12` [257′, 6-(4-([1,1′-biphenyl]-3-yl)-1-(2,2-difluoroethyl)-1H-imidazol-5-yl)imidazo[1,2-b]pyridazine-3-carbonitrile], for which the IC50 on HIS-TGF-βR2 WT (setting [1]) is > 15 µM.

`N#Cc1cnc2ccc(-c3c(-c4ccc(F)cc4C(F)(F)F)ncn3CC(F)F)nn12` [261′, 6-(1-(2,2-difluoroethyl)-4-(4-fluoro-2-(trifluoromethyl)phenyl)-1H-imidazol-5-yl)imidazo[1,2-b]pyridazine-3-carbonitrile]: the IC50 on HIS-TGF-βR2 WT (setting [1]) is > 15 µM.

As to `CC(=O)N1CCn2c(nc(-c3ccc(F)cc3)c2-c2ccc3ncc(C(N)=O)n3c2)C1` [292′, 6-(7-acetyl-2-(4-fluorophenyl)-5,6,7,8-tetrahydroimidazo[1,2-a]pyrazin-3-yl)imidazo[1,2-a]pyridine-3-carboxamide], the IC50 at HIS-TGF-βR2 WT (setting [1]) is > 15 µM.
